The text below walks through data of PubChem BioAssay (NCI).

Common to all, as to assay: inhibition of tumour cell growth, NCI panel, 48 h
Assay [1] concerns MOLT-4 leukemia.
For assay [2], the system named is OVCAR-5 ovarian.
Assay [3] deals with DU-145 prostate.
The subject of assay [4] is MCF7 breast.
Assay [5] deals with SK-MEL-2 melanoma.
Assay [6] has as its system HCC-2998 colon.
Assay [7] relates to ACHN renal.
For assay [8], the system named is SK-MEL-28 melanoma.
For assay [9], the system named is HCT-15 colon.
The subject of assay [10] is A549 NSCLC.

Each structure is given as a SMILES string.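 Results reflect a 48-hour exposure of cells in 96-well plates to compound at five concentrations. The concentration for 50% growth inhibition is given as GI50. TGI denotes the concentration required for complete inhibition of growth.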

Turning to `O=C(NCCCNc1cc(-c2cn(-c3ccccc3)nc2-c2cccc(O)c2)ccn1)c1ccccc1`, the GI50 in assay [1] was 1.41 µM; in assay [2], 3.93 µM; in assay [3] it was 5.29 µM; in [4], 1.74 µM; in assay [5], 3.42 µM; in [6], 1.92 µM. In addition, the GI50 in assay [7] is 3.47 µM; in assay [8], 2.18 µM; in assay [9], 1.51 µM; in assay [10], 4.62 µM. For the same compound, the TGI stood at 3.78 µM in assay [1]; 75 µM in assay [2]; 96.5 µM in assay [3]; 5.29 µM in assay [4]; 13.7 µM in assay [5]; 3.69 µM in [6]. The TGI in [7] is more than 100 µM; in assay [8], 6.08 µM; in assay [9] it was 5.12 µM; in assay [10], 34.4 µM.
For the compound `CCOc1cc2c(NCCCN(CCO)CCO)ncnc2c(OCC)c1OCC`, the TGI in assay [1], in [2], in [3], in assay [4], in [5] and in assay [6] was more than 100 µM throughout. Moreover, the TGI in [7], in assay [8], in assay [9] and in assay [10] was more than 100 µM throughout.
For the compound `COC(=O)c1c2c(c(C)[n+]([O-])c1C)C(=O)C=C(NCc1ccc(F)c(F)c1)C2=O`, the GI50 in assay [1] is 0.588 µM; in [2] it was 1.14 µM; in [3], 1.06 µM; in assay [4] it was 0.255 µM; in assay [5], 0.874 µM; in assay [6], 0.359 µM. In addition, the GI50 was 0.572 µM in assay [7], 0.84 µM in assay [8], 0.235 µM in assay [9] and 0.48 µM in [10]. Moreover, the TGI in assay [1] amounted to 2.12 µM; in [2] it was 2.49 µM; in assay [3], 2.28 µM; in assay [4], 0.891 µM; in assay [5] it was 2.37 µM; in [6], 1.43 µM. The TGI was determined as 2.01 µM in [7], 2.43 µM in [8], 1.44 µM in assay [9] and 2.2 µM in assay [10].
For the compound `Cc1nc2sc(C(=O)Nc3cccc4ccccc34)c(N)c2cc1C(=O)c1ccccc1`, the GI50 in assay [1] is 2.27 µM; in assay [2], 2.27 µM; in [3], 1.94 µM; in assay [4] it was 1.53 µM; in assay [5], 3.92 µM; in assay [6] it was 1.52 µM. For the same compound, the GI50 is 2.73 µM in assay [7], 4.95 µM in [8], 1.41 µM in [9] and 0.403 µM in assay [10]. For the same compound, the TGI in assay [1], in assay [2], in assay [3], in assay [4], in [5] and in assay [6] was more than 50 µM in each case. In addition, the TGI in assay [7], in assay [8], in assay [9] and in [10] was more than 50 µM throughout.
Take `N#Cc1c(-c2ccccc2)cc(-c2ccc(Nc3nc(Nc4ccc(Cl)cc4)nc(Nc4ccc(Cl)cc4)n3)cc2)nc1N`: the GI50 in assay [1] was 1.62 µM; in assay [2] it was 4.13 µM; in [3], 4.67 µM; in assay [4], 1.56 µM; in assay [5], 1.54 µM; in assay [6], 7 µM. The GI50 in assay [7] was 1.64 µM; in [8], 1.22 µM; in assay [9], 1.56 µM; in [10] it was 11 µM. Further, the TGI in assay [1] was found to be 4.53 µM; in assay [2], 17.6 µM; in assay [3] it was 20.4 µM; in [4], 4.16 µM; in assay [5], 3.44 µM; in assay [6], 35.5 µM. Moreover, the TGI is 3.26 µM in [7], 2.8 µM in [8], 5.1 µM in [9] and more than 100 µM in assay [10].
For the compound `NNc1cccc(/C=C/c2ccccc2)cc1=O`, the GI50 is 3.94 µM in assay [1]; 45.9 µM in assay [2]; 7.04 µM in [3]; 8.32 µM in [4]; 70.1 µM in assay [5]; 16.8 µM in assay [6]. The GI50 in assay [7] was 7.27 µM; in [8], 35.9 µM; in assay [9], 3.8 µM; in assay [10], 7.78 µM. The TGI in assay [1], in assay [2], in assay [3], in assay [4], in assay [5] and in [6] was more than 100 µM throughout. Moreover, the TGI in assay [7], in assay [8], in [9] and in assay [10] was more than 100 µM each time.
Consider `Cc1nc2ccc(Nc3nc(NCCN4CCOCC4)nc(Nc4ccc(F)cc4)n3)cc2n1Cc1ccccc1`, for which the GI50 was 2.7 µM in assay [1]; 2.71 µM in [2]; 5.56 µM in [3]; 2.46 µM in [4]; 2.16 µM in [5]; 2.74 µM in assay [6]. Further, the GI50 in [7] was 2.78 µM; in assay [8], 1.56 µM; in [9], 2.16 µM; in [10] it was 3.69 µM. Moreover, the TGI in assay [1] came to 10.9 µM; in [2], 13.6 µM; in [3] it was 71.6 µM; in assay [4], 11.7 µM; in [5], 4.61 µM; in assay [6] it was 6.23 µM. In addition, the TGI was 17.5 µM in assay [7], 2.94 µM in assay [8], 5.68 µM in assay [9] and more than 100 µM in assay [10].
Regarding `N=C(N=C(N)N)N1CCN(c2ccncc2)CC1`, the GI50 in assay [1], in assay [2], in assay [3], in assay [4], in [5] and in [6] was more than 1000 µM each time. Besides, the GI50 in assay [7], in assay [8], in [9] and in assay [10] was more than 1000 µM in each case. Further, the TGI in assay [1], in assay [2], in assay [3], in assay [4], in assay [5] and in assay [6] was more than 1000 µM in each case. Further, the TGI in assay [7], in assay [8], in assay [9] and in [10] was more than 1000 µM in each case.
With `CCOC(=O)C(=Cc1ccccc1[N+](=O)[O-])C(=O)OCC`, the GI50 in assay [1] was 3.55 µM; in assay [2], 5.75 µM; in assay [3], 3.22 µM; in [4] it was 2.52 µM; in assay [5] it was 4.01 µM; in [6], 3.48 µM. The GI50 in assay [7] is 2.06 µM; in assay [8], 2.93 µM; in assay [9], 1.83 µM; in assay [10] it was 4.05 µM. Further, the TGI in assay [1] amounted to 34.5 µM; in assay [2], 15.7 µM; in [3], 12 µM; in assay [4] it was 14.2 µM; in assay [5] it was 11.9 µM; in assay [6], 10.7 µM. For the same compound, the TGI in assay [7] worked out at 4.31 µM; in assay [8] it was 9.59 µM; in assay [9] it was 4.47 µM; in [10], 17.5 µM.
Turning to `COc1ccc2c(Nc3ccc(NS(C)(=O)=O)cc3)c3ccccc3nc2c1`, the GI50 was 0.111 µM in [1]; 1.02 µM in assay [2]; 0.315 µM in assay [3]; 0.3 µM in assay [4]; 0.334 µM in assay [5]; 0.732 µM in [6]. Besides, the GI50 is 0.217 µM in assay [7], 1.38 µM in assay [8], 1.41 µM in [9] and 0.151 µM in assay [10]. For the same compound, the TGI in assay [1] was determined as 22.5 µM; in assay [2] it was 4.91 µM; in assay [3], 6.46 µM; in assay [4], 1.99 µM; in [5], 2.29 µM; in assay [6] it was 2.3 µM. In addition, the TGI in [7] was 1.58 µM; in assay [8], 3.45 µM; in assay [9], 11.4 µM; in assay [10], 2.7 µM.
Take `Cc1cc(C)c(C[N+](C)(C)C)c(C)c1C`: the GI50 in assay [1] is 0.349 µM; in assay [2] it was 0.48 µM; in assay [3] it was 0.347 µM; in assay [4] it was 0.289 µM; in assay [5] it was 0.654 µM; in [6], 0.521 µM. For the same compound, the GI50 in assay [7] was 0.173 µM; in [8], 0.365 µM; in assay [9], 0.313 µM; in [10] it was 0.281 µM. Besides, the TGI in assay [1] is more than 52.9 µM; in assay [2], more than 62.1 µM; in assay [3] it was 11.4 µM; in [4] it was 15.2 µM; in [5], 5.04 µM; in assay [6], 12.4 µM. The TGI in assay [7] is more than 100 µM; in [8], 23.5 µM; in [9] it was 19.4 µM; in assay [10] it was 39.1 µM.
For `OCC1OC(n2ccc3c(NO)ncnc32)C(O)C1O` (stereo not given), the GI50 is 0.153 µM in assay [1]; 0.247 µM in assay [2]; 0.111 µM in assay [3]; 0.13 µM in assay [4]; 0.155 µM in [5]; 0.25 µM in assay [6]. In addition, the GI50 in [7] is 0.0391 µM; in [8] it was 0.231 µM; in assay [9], 0.118 µM; in assay [10] it was 0.087 µM. Moreover, the TGI in assay [1] was found to be 0.477 µM; in assay [2], 6.33 µM; in assay [3] it was 0.702 µM; in [4], 1.68 µM; in assay [5], 0.429 µM; in assay [6] it was 1 µM. Further, the TGI in assay [7] is 3.17 µM; in assay [8], 0.873 µM; in assay [9] it was 1.52 µM; in [10], 3.58 µM.
For `COc1ccccc1NC(=O)n1nc(N)c2ccccc21`, the GI50 in [1] was 67.4 µM; in [2], more than 100 µM; in assay [3], more than 100 µM; in [4], 0.0842 µM; in [5] it was more than 100 µM; in assay [6], more than 81.4 µM. The GI50 in assay [7] is more than 81.7 µM; in [8] it was more than 100 µM; in [9] it was 63.6 µM; in [10] it was more than 86.9 µM. Also, the TGI is more than 100 µM in [1]; more than 100 µM in assay [2]; more than 100 µM in [3]; 4.32 µM in assay [4]; more than 100 µM in assay [5]; more than 100 µM in assay [6]. Besides, the TGI in assay [7], in assay [8], in assay [9] and in assay [10] was more than 100 µM each time.
Take `OCCSCc1ccccc1`: the TGI in [1], in [2], in assay [3], in assay [4], in [5] and in assay [6] was more than 100 µM each time. Further, the TGI in [7], in [8], in assay [9] and in assay [10] was more than 100 µM throughout.
As to `COC1CC2C=C(C)/C=C/C=C/C(=O)NC(c3ccccc3)C/C=C/CCC(O)CC(=O)C2=C1O` (stereo not given), the GI50 in assay [1] is 0.364 µM; in assay [2], 0.357 µM; in assay [3], 0.405 µM; in assay [4] it was 0.169 µM; in assay [5] it was 0.223 µM; in assay [6], 0.558 µM. In addition, the GI50 in [7] was 0.311 µM; in assay [8] it was 0.703 µM; in [9], 0.274 µM; in assay [10] it was 0.241 µM. Also, the TGI in assay [1] was 1.4 µM; in [2], 1.24 µM; in assay [3], 1.57 µM; in assay [4] it was 0.776 µM; in [5], 0.6 µM; in [6], 1.94 µM. For the same compound, the TGI in assay [7] was 1.14 µM; in [8], 2.03 µM; in [9], 1.29 µM; in assay [10], 1.15 µM.
For `O=C1C=C(Br)C(=O)C12CCc1ccccc12` (stereo not given), the TGI in assay [1] is 6.89 µM; in assay [2], 33.3 µM; in assay [3], 31.7 µM; in assay [4], 48.5 µM; in assay [5] it was 54.2 µM; in assay [6], 40.2 µM. Moreover, the TGI in assay [7] is 24.7 µM; in assay [8] it was 27.2 µM; in assay [9], 19.7 µM; in assay [10], 55.4 µM.
